Where a SMILES comes first, the peptide text is derived from it. Bridges are numbered along the chain shown (N, C = ends). [ ]: non-standard residue; d: D form. The star is where a group is joined. ξ: configuration not given here. Phe(4-COOH) = N[C@@H](Cc1ccc(C(=O)O)cc1)C(=O)O; Bip = N[C@@H](Cc1ccc(-c2ccccc2)cc1)C(=O)O; Phe(3-Me) = Cc1cccc(C[C@H](N)C(=O)O)c1; hArg = N=C(N)NCCCC[C@H](N)C(=O)O; Cha = N[C@@H](CC1CCCCC1)C(=O)O; Thr(3ξ) = CC(O)[C@H](N)C(=O)O; NMeNle = CCCC[C@H](NC)C(=O)O; Carboxymethyl = O=C(O)C*; Orn = NCCC[C@H](N)C(=O)O; Dab = NCC[C@H](N)C(=O)O; Dap = NC[C@H](N)C(=O)O
molecular target: T1, human PD-1 / PD-L1-Ig binding on Jurkat cell line over-expressing human PD-1 (Jurkat-PD-1) (Homo sapiens, UniProt Q15116); assay: Jurkat-PD-1 Cell Binding High-Content Screening Assay (CBA); type: cell-based; conditions: Jurkat-PD-1 cells, PE-labeled PD-L1-Ig 20 nM final; read-out: Jurkat HPD1_PDL1 IC50
T1 construct: expressed in transfected cells; host or cells: Jurkat
Summary of the method: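 Compounds were preincubated with Jurkat-hPD-1 cells in DMEM plus 10% fetal calf serum for 2 h at 37° C. Phycoerythrin-labeled PD-L1-Ig (20 nM final) was then added for 1 hour. Cells were fixed in 4% paraformaldehyde with Hoechst 33342, and bound fluorescence was quantified by high-content imaging.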

T1 sequence (Q15116 25-288): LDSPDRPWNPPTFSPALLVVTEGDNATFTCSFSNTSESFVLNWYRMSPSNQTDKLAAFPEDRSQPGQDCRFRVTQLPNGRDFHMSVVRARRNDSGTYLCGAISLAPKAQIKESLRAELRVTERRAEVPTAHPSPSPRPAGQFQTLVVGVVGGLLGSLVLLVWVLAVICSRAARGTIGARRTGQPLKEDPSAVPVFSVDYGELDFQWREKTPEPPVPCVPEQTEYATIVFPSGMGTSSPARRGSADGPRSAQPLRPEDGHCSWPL

| Compound | IC50 |
| --- | --- |
| CCCC[C@H]1C(=O)N[C@@H](Cc2ccc(C(=O)O)cc2)C(=O)N[C@@H](CC(=O)O)C(=O)N[C@@H](Cc2c[nH]c3ccccc23)C(=O)N[C@@H](C(C)C)C(=O)N[C@@H](Cc2ccc(-c3ccccc3)cc2)C(=O)N[C@@H](C(C)C)C(=O)N[C@@H](CCCN)C(=O)N[C@H](CC(C)C)C(=O)N[C@@H](CCN)C(=O)N[C@@H](CC2CCCCC2)C(=O)N[C@@H](C(C)C)C(=O)N[C@@H](C(C)O)C(=O)N[C@H](C(=O)N[C@@H](CC(N)=O)C(N)=O)CSCC(=O)N1C (stereo partly drawn) [Compound 2551] ({CH2CO}-[NMeNle][Phe(4-COOH)]DWV[Bip]V[Orn][dL][Dab][Cha]V[Thr(3ξ)]CN-NH2; thioether N-14) | 92.5 nM |
| CC(C)C[C@H]1NC(=O)[C@H](CCCN)NC(=O)[C@H](C(C)O)NC(=O)[C@H](Cc2ccc(-c3ccccc3)cc2)NC(=O)[C@H](C(C)C)NC(=O)[C@H](Cc2c[nH]c3ccccc23)NC(=O)[C@H](CC(=O)O)NC(=O)[C@H](Cc2ccc(OCC(=O)O)cc2)NC(=O)[C@H](CN)NC(=O)CSC[C@@H](C(=O)N[C@@H](CC(N)=O)C(N)=O)NC(=O)[C@H](C(C)O)NC(=O)[C@H](C(C)C)NC(=O)[C@H](CC2CCCCC2)NC(=O)[C@H](Cc2c[nH]cn2)NC1=O (stereo partly drawn) [Compound 2552] ({CH2CO}-[Dap]Y(Carboxymethyl)DWV[Bip][Thr(3ξ)][Orn][dL]H[Cha]V[Thr(3ξ)]CN-NH2; thioether N-14) | 28.6 nM |
| CCCC[C@H]1C(=O)N[C@@H](Cc2ccc(OCC(=O)O)cc2)C(=O)N[C@@H](CC(=O)O)C(=O)N[C@@H](Cc2cccc(C)c2)C(=O)N[C@@H](C(C)C)C(=O)N[C@@H](Cc2ccc(-c3ccccc3)cc2)C(=O)N[C@@H](C(C)O)C(=O)N[C@@H](CCCN)C(=O)N[C@H](CC(C)C)C(=O)N[C@@H](CCN)C(=O)N[C@@H](CC2CCCCC2)C(=O)N[C@@H](C(C)C)C(=O)N[C@@H](C(C)O)C(=O)N[C@H](C(=O)N[C@@H](CC(N)=O)C(N)=O)CSCC(=O)N1C (stereo partly drawn) [Compound 2553] ({CH2CO}-[NMeNle]Y(Carboxymethyl)D[Phe(3-Me)]V[Bip][Thr(3ξ)][Orn][dL][Dab][Cha]V[Thr(3ξ)]CN-NH2; thioether N-14) | 24.6 nM |
| CC(C)[C@@H]1NC(=O)[C@H](Cc2c[nH]c3ccccc23)NC(=O)[C@H](CC(=O)O)NC(=O)[C@H](Cc2ccc(OCC(=O)O)cc2)NC(=O)[C@H](CCCCNC(=N)N)NC(=O)CSC[C@@H](C(=O)N[C@@H](CC(N)=O)C(N)=O)NC(=O)[C@H](CO)NC(=O)[C@H](C(C)C)NC(=O)[C@H](CC2CCCCC2)NC(=O)[C@H](CCN)NC(=O)[C@@H](C)NC(=O)[C@H](CCCN)NC(=O)[C@H](CC(N)=O)NC(=O)[C@H](Cc2ccc(-c3ccccc3)cc2)NC1=O [Compound 2554] ({CH2CO}-[hArg]Y(Carboxymethyl)DWV[Bip]N[Orn][dA][Dab][Cha]VSCN-NH2; thioether N-14) | 16.9 nM |
| CC(C)C[C@H]1NC(=O)[C@H](CCCN)NC(=O)[C@H](C(C)C)NC(=O)[C@H](Cc2ccc(-c3ccccc3)cc2)NC(=O)[C@H](C(C)C)NC(=O)[C@H](Cc2c[nH]c3ccccc23)NC(=O)[C@H](CC(=O)O)NC(=O)[C@H](Cc2ccc(OCC(=O)O)cc2)NC(=O)[C@H](CCCCNC(=N)N)NC(=O)CSC[C@@H](C(=O)N[C@@H](C)C(N)=O)NC(=O)[C@H](C(C)O)NC(=O)[C@H](C(C)C)NC(=O)[C@H](CC2CCCCC2)NC(=O)[C@H](Cc2c[nH]cn2)NC1=O (some centres unmarked) [Compound 2555] | 19.5 nM |
| CC(C)C[C@H]1NC(=O)[C@H](CCCN)NC(=O)[C@H](Cc2cnc[nH]2)NC(=O)[C@H](Cc2ccc(-c3ccccc3)cc2)NC(=O)[C@H](C(C)C)NC(=O)[C@H](Cc2c[nH]c3ccccc23)NC(=O)[C@H](CC(=O)O)NC(=O)[C@H](Cc2ccc(OCC(=O)O)cc2)NC(=O)[C@H](Cc2ccccc2)NC(=O)CSC[C@@H](C(=O)N[C@@H](CC(N)=O)C(N)=O)NC(=O)[C@H](CO)NC(=O)[C@H](C(C)C)NC(=O)[C@H](CC2CCCCC2)NC(=O)[C@H](CCN)NC1=O [Compound 2560] ({CH2CO}-FY(Carboxymethyl)DWV[Bip]H[Orn][dL][Dab][Cha]VSCN-NH2; thioether N-14) | 9.4 nM |
| CC(C)C[C@H]1NC(=O)[C@H](CCCN)NC(=O)[C@H](Cc2cnc[nH]2)NC(=O)[C@H](Cc2ccc(-c3ccccc3)cc2)NC(=O)[C@H](C(C)C)NC(=O)[C@H](Cc2c[nH]c3ccccc23)NC(=O)[C@H](CC(=O)O)NC(=O)[C@H](Cc2ccc(OCC(=O)O)cc2)NC(=O)[C@H](C(C)O)NC(=O)CSC[C@@H](C(=O)N[C@@H](CC(N)=O)C(N)=O)NC(=O)[C@H](CO)NC(=O)[C@H](C(C)C)NC(=O)[C@H](CC2CCCCC2)NC(=O)[C@H](CCN)NC1=O (stereo partly drawn) [Compound 2561] ({CH2CO}-[Thr(3ξ)]Y(Carboxymethyl)DWV[Bip]H[Orn][dL][Dab][Cha]VSCN-NH2; thioether N-14) | 8.2 nM |

Second part, the compound after the results:

| IC50 | Compound |
| --- | --- |
| 4.9 nM | CC(C)C[C@H]1NC(=O)[C@H](CCCN)NC(=O)[C@H](C(C)C)NC(=O)[C@H](Cc2ccc(-c3ccccc3)cc2)NC(=O)[C@H](C(C)C)NC(=O)[C@H](Cc2c[nH]c3ccccc23)NC(=O)[C@H](CC(=O)O)NC(=O)[C@H](Cc2ccc(OCC(=O)O)cc2)NC(=O)[C@H](C(C)O)NC(=O)CSC[C@@H](C(=O)N[C@@H](CC(N)=O)C(N)=O)NC(=O)[C@H](CO)NC(=O)[C@H](C(C)C)NC(=O)[C@H](CC2CCCCC2)NC(=O)[C@H](CCN)NC1=O (stereo partly drawn) [Compound 2550] ({CH2CO}-[Thr(3ξ)]Y(Carboxymethyl)DWV[Bip]V[Orn][dL][Dab][Cha]VSCN-NH2; thioether N-14) |
| 68.6 nM | CC(C)C[C@@H]1NC(=O)[C@H](Cc2c[nH]c3ccccc23)NC(=O)[C@H](CC(=O)O)NC(=O)[C@H](Cc2ccc(OCC(=O)O)cc2)NC(=O)[C@H](C(C)O)NC(=O)CSC[C@@H](C(=O)N[C@@H](CC(N)=O)C(N)=O)NC(=O)[C@H](CO)NC(=O)[C@H](C(C)C)NC(=O)[C@H](CC2CCCCC2)NC(=O)[C@H](CCN)NC(=O)[C@@H](CC(C)C)NC(=O)[C@H](CCCN)NC(=O)[C@H](CC(N)=O)NC(=O)[C@H](Cc2ccc(-c3ccccc3)cc2)NC1=O (stereo partly drawn) [Compound 2557] ({CH2CO}-[Thr(3ξ)]Y(Carboxymethyl)DWL[Bip]N[Orn][dL][Dab][Cha]VSCN-NH2; thioether N-14) |
| 14 nM | CC(C)C[C@@H]1NC(=O)[C@H](Cc2c[nH]c3ccccc23)NC(=O)[C@H](CC(=O)O)NC(=O)[C@H](Cc2ccc(OCC(=O)O)cc2)NC(=O)[C@H](CCN)NC(=O)CSC[C@@H](C(=O)N[C@@H](CC(N)=O)C(N)=O)NC(=O)[C@H](CO)NC(=O)[C@H](C(C)C)NC(=O)[C@H](CC2CCCCC2)NC(=O)[C@H](CCN)NC(=O)[C@@H](CC(C)C)NC(=O)[C@H](CCCN)NC(=O)[C@H](C(C)O)NC(=O)[C@H](Cc2ccc(-c3ccccc3)cc2)NC1=O (stereo partly drawn) [Compound 2558] ({CH2CO}-[Dab]Y(Carboxymethyl)DWL[Bip][Thr(3ξ)][Orn][dL][Dab][Cha]VSCN-NH2; thioether N-14) |
| 24.8 nM | CC(C)C[C@@H]1NC(=O)[C@H](Cc2c[nH]c3ccccc23)NC(=O)[C@H](CC(=O)O)NC(=O)[C@H](Cc2ccc(OCC(=O)O)cc2)NC(=O)[C@H](C(C)O)NC(=O)CSC[C@@H](C(=O)N[C@@H](CC(N)=O)C(N)=O)NC(=O)[C@H](CO)NC(=O)[C@H](C(C)C)NC(=O)[C@H](CC2CCCCC2)NC(=O)[C@H](CCN)NC(=O)[C@@H](CC(C)C)NC(=O)[C@H](CCCN)NC(=O)[C@H](C(C)O)NC(=O)[C@H](Cc2ccc(-c3ccccc3)cc2)NC1=O (stereo partly drawn) [Compound 2559] ({CH2CO}-[Thr(3ξ)]Y(Carboxymethyl)DWL[Bip][Thr(3ξ)][Orn][dL][Dab][Cha]VSCN-NH2; thioether N-14) |
